pIC50: −log10 of the molar value.
Target: T1, recombinant human PDK1 (Homo sapiens, UniProt O15530)
T1 construct: containing amino acids 51-556 of the human PDK1 enzyme; made in house; host or cells: Sf9 insect cells
T1 sequence (O15530 51-556): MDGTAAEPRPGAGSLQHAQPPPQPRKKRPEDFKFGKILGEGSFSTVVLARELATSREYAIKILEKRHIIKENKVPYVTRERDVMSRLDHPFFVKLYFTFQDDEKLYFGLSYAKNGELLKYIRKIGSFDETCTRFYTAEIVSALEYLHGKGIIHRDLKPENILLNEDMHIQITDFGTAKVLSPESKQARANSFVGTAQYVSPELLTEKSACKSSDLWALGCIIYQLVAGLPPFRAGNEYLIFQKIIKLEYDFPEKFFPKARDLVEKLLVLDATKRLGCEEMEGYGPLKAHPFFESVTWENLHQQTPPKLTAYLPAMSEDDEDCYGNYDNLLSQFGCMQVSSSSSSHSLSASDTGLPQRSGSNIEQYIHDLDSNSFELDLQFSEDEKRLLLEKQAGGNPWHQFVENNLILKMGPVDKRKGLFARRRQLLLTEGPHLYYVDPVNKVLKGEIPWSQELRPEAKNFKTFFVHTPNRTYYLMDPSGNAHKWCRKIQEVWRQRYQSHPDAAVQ
Assay: PDK1 IMAP fluorescence polarization assay (inhibition of peptide substrate phosphorylation)
Format: biochemical

[1] = Table 6, 10 nM PDK1 enzyme, 100 nM peptide substrate, 100 nM PIFtide, 2.5 uM ATP, 1.5 hours

Structure (SMILES)	pIC50 [1]	pIC50 (Table 10, compounds 97-132)
Cc1cc(-c2c[nH]c(C(=O)Nc3cccc(F)c3N3CCC(C(=O)N4CCC5(CC4)CNC5)CC3)n2)ccn1 [Compound 94, N-[2-[4-(2,7-diazaspiro[3.5]noN-7-ylcarbonyl)-1-piperidinyl]-3-fluorophenyl]-4-(2-methyl-4-pyridinyl)-1H-imidazole-2-carboxamide]	6.60 to 7.29	
Cc1cc(-c2c[nH]c(C(=O)Nc3cccc(F)c3N3CCC(C(=O)N4CCOC(C(C)N)C4)CC3)n2)ccn1 (stereo not drawn) [Compound 95, N-[2-[4-[[2-(1-aminoethyl)-4-morpholinyl]carbonyl]-1-piperidinyl]-3-fluorophenyl]-4-(2-methyl-4-pyridinyl)-1H-imidazole-2-carboxamide]	6.00 to 6.60	
Cc1cc(-c2c[nH]c(C(=O)Nc3cccc(F)c3N3CCC(C(=O)N4CCC(O)(c5ccccn5)CC4)CC3)n2)ccn1 [Compound 96, N-[3-fluoro-2-[4-[[4-hydroxy-4-(2-pyridinyl)-1-piperidinyl]carbonyl]-1-piperidinyl]phenyl]-4-(2-methyl-4-pyridinyl)-1H-imidazole-2-carboxamide]	5.30 to 6.00	
NCC1CCN(c2c(F)cccc2NC(=O)c2nc(-c3ccc(=O)n(C(F)F)c3)c[nH]2)CC1 [Compound 97, N-(2-(4-(aminomethyl)piperidin-1-yl)-3-fluorophenyl)-4-(1-(difluoromethyl)-6-oxo-1,6-dihydropyridin-3-yl)-1H-imidazole-2-carboxamide]		6.60 to 7.29
Cc1cc(-c2c[nH]c(C(=O)Nc3cccc(F)c3N3CCC[C@@H](N)C3)n2)cc(Cl)n1 [Compound 98, (R)—N-(2-(3-aminopiperidin-1-yl)-3-fluorophenyl)-4-(2-chloro-6-methylpyridin-4-yl)-1H-imidazole-2-carboxamide]		6.00 to 6.60
NCC1CCN(c2c(F)cccc2NC(=O)c2nc(-c3cc(N4CCOCC4)nc(N)n3)c[nH]2)CC1 [Compound 99, 4-(2-amino-6-morpholinopyrimidin-4-yl)-N-(2-(4-(aminomethyl)piperidin-1-yl)-3-fluorophenyl)-1H-imidazole-2-carboxamide]		7.30 to 9.00
CNc1nc(-c2c[nH]c(C(=O)Nc3cccc(F)c3N3CCC(CN)CC3)n2)cc(N2CCN(C(=O)OC)CC2)n1 [Compound 100, methyl 4-(6-(2-(2-(4-(aminomethyl)piperidin-1-yl)-3-fluorophenylcarbamoyl)-1H-imidazol-4-yl)-2-(methylamino)pyrimidin-4-yl)piperazine-1-carboxylate]		7.30 to 9.00
CNc1nc(-c2c[nH]c(C(=O)Nc3ccccc3N3CCNCC3)n2)cc(N2CCN(C(C)=O)CC2)n1 [Compound 103, 4-(6-(4-acetylpiperazin-1-yl)-2-(methylamino)pyrimidin-4-yl)-N-(2-(piperazin-1-yl)phenyl)-1H-imidazole-2-carboxamide]		6.60 to 7.29
CNc1nc(-c2c[nH]c(C(=O)Nc3ccccc3N3CCNCC3)n2)cc(N2CCN(C(=O)OCc3ccccc3)CC2)n1 [Compound 105, benzyl 4-(2-(methylamino)-6-(2-(2-(piperazin-1-yl)phenylcarbamoyl)-1H-imidazol-4-yl)pyrimidin-4-yl)piperazine-1-carboxylate]		5.30 to 6.00
CNc1nc(-c2c[nH]c(C(=O)Nc3cccc(F)c3N3CCC(CN)CC3)n2)cc(N2CCC(CN)CC2)n1 [Compound 125, 4-(6-(4-(aminomethyl)piperidin-1-yl)-2-(methylamino)pyrimidin-4-yl)-N-(2-(4-(aminomethyl)piperidin-1-yl)-3-fluorophenyl)-1H-imidazole-2-carboxamide]		7.30 to 9.00
CNc1nc(-c2c[nH]c(C(=O)Nc3cccc(F)c3N3CCC(CN)CC3)n2)cc(N2CCC(NC)(C(N)=O)CC2)n1 [Compound 127, 1-(6-(2-(2-(4-(aminomethyl)piperidin-1-yl)-3-fluorophenylcarbamoyl)-1H-imidazol-4-yl)-2-(methylamino)pyrimidin-4-yl)-4-(methylamino)piperidine-4-carboxamide]		7.30 to 9.00
CNc1nc(-c2c[nH]c(C(=O)Nc3cccc(F)c3N3CCC(CN)CC3)n2)cc(N2CC[C@@](OC)(C(N)=O)C2)n1 [Compound 128, (S)—N-(2-(4-(aminomethyl)piperidin-1-yl)-3-fluorophenyl)-4-(6-(3-carbamoyl-3-methoxypyrrolidin-1-yl)-2-(methylamino)pyrimidin-4-yl)-1H-imidazole-2-carboxamide]		7.30 to 9.00
CNc1nc(-c2c[nH]c(C(=O)Nc3cccc(F)c3N3CCC(CN)CC3)n2)cc(N2CC[C@@](COC)(C(=O)NCc3ccccc3)C2)n1 [Compound 130, (R)—N-(2-(4-(aminomethyl)piperidin-1-yl)-3-fluorophenyl)-4-(6-(3-(benzylcarbamoyl)-3-(methoxymethyl)pyrrolidin-1-yl)-2-(methylamino)pyrimidin-4-yl)-1H-imidazole-2-carboxamide]		7.30 to 9.00

Further lines, results first:

pIC50 [1]	pIC50 (Table 10, compounds 97-132)	Structure (SMILES)
	7.30 to 9.00	CNc1nc(-c2c[nH]c(C(=O)Nc3cccc(F)c3N3CCC(CN)CC3)n2)cc(N2CCN(C(C)=O)CC2)n1 [Compound 101, 4-(6-(4-acetylpiperazin-1-yl)-2-(methylamino)pyrimidin-4-yl)-N-(2-(4-(aminomethyl)piperidin-1-yl)-3-fluorophenyl)-1H-imidazole-2-carboxamide]
	6.60 to 7.29	CNc1nc(-c2c[nH]c(C(=O)Nc3ccccc3N3CCNCC3)n2)cc(N2CCOC(C(=O)NC3CCCCC3)C2)n1 (stereo not drawn) [Compound 106, N-cyclohexyl-4-(2-(methylamino)-6-(2-(2-(piperazin-1-yl)phenylcarbamoyl)-1H-imidazol-4-yl)pyrimidin-4-yl)morpholine-2-carboxamide]
	7.30 to 9.00	CNc1nc(-c2c[nH]c(C(=O)Nc3cccc(F)c3N3CCC(CN)CC3)n2)cc(N2C[C@@H](C(=O)NC3CCCCC3)CC[C@H]2C)n1 [Compound 115, (3S,6R)-1-(6-(2-(2-(4-(aminomethyl)piperidin-1-yl)-3-fluorophenylcarbamoyl)-1H-imidazol-4-yl)-2-(methylamino)pyrimidin-4-yl)-N-cyclohexyl-6-methylpiperidine-3-carboxamide]
	7.30 to 9.00	CNc1nc(-c2c[nH]c(C(=O)Nc3cccc(F)c3N3CCC(CN)CC3)n2)cc(N2C[C@H](C(=O)NC3CCCCC3)CC[C@@H]2C)n1 [Compound 116, (3R,6S)-1-(6-(2-(2-(4-(aminomethyl)piperidin-1-yl)-3-fluorophenylcarbamoyl)-1H-imidazol-4-yl)-2-(methylamino)pyrimidin-4-yl)-N-cyclohexyl-6-methylpiperidine-3-carboxamide]
	7.30 to 9.00	CNc1nc(-c2c[nH]c(C(=O)Nc3cccc(F)c3N3CCO[C@@H](CN)C3)n2)cc(N2C[C@@H](C(=O)NC3CCCCC3)CC[C@H]2C)n1 [Compound 117, (3S,6R)-1-(6-(2-(2-((S)-2-(aminomethyl)morpholino)-3-fluorophenylcarbamoyl)-1H-imidazol-4-yl)-2-(methylamino)pyrimidin-4-yl)-N-cyclohexyl-6-methylpiperidine-3-carboxamide]
	7.30 to 9.00	CNc1nc(-c2c[nH]c(C(=O)Nc3cccc(F)c3N3CCC(CN)CC3)n2)cc(N2CCNC[C@H]2C)n1 [Compound 120, (R)—N-(2-(4-(aminomethyl)piperidin-1-yl)-3-fluorophenyl)-4-(2-(methylamino)-6-(2-methylpiperazin-1-yl)pyrimidin-4-yl)-1H-imidazole-2-carboxamide]
	7.30 to 9.00	CNc1nc(-c2c[nH]c(C(=O)Nc3cccc(F)c3N3CCC(CN)CC3)n2)cc(N2CCOC[C@H]2C)n1 [Compound 121, (R)—N-(2-(4-(aminomethyl)piperidin-1-yl)-3-fluorophenyl)-4-(2-(methylamino)-6-(3-methylmorpholino)pyrimidin-4-yl)-1H-imidazole-2-carboxamide]
	7.30 to 9.00	CNc1nc(-c2c[nH]c(C(=O)Nc3cccc(F)c3N3CCC(CN)CC3)n2)cc(N2CCO[C@H](CN)C2)n1 [Compound 123, (R)-4-(6-(2-(aminomethyl)morpholino)-2-(methylamino)pyrimidin-4-yl)-N-(2-(4-(aminomethyl)piperidin-1-yl)-3-fluorophenyl)-1H-imidazole-2-carboxamide]
	7.30 to 9.00	CNc1nc(-c2c[nH]c(C(=O)Nc3cccc(F)c3N3CCC(CN)CC3)n2)cc(N2CCN[C@@H](C)C2)n1 [Compound 124, (S)—N-(2-(4-(aminomethyl)piperidin-1-yl)-3-fluorophenyl)-4-(2-(methylamino)-6-(3-methylpiperazin-1-yl)pyrimidin-4-yl)-1H-imidazole-2-carboxamide]
	7.30 to 9.00	CNc1nc(-c2c[nH]c(C(=O)Nc3cccc(F)c3N3CCC(CN)CC3)n2)cc(N2CCC[C@@H](N)C2)n1 [Compound 126, (R)—N-(2-(4-(aminomethyl)piperidin-1-yl)-3-fluorophenyl)-4-(6-(3-aminopiperidin-1-yl)-2-(methylamino)pyrimidin-4-yl)-1H-imidazole-2-carboxamide]
	7.30 to 9.00	CNc1nc(-c2c[nH]c(C(=O)Nc3cccc(F)c3N3CCC(CN)CC3)n2)cc(N2CC[C@@](OC)(C(=O)NC3CCCCC3)C2)n1 [Compound 129, (S)—N-(2-(4-(aminomethyl)piperidin-1-yl)-3-fluorophenyl)-4-(6-(3-(cyclohexylcarbamoyl)-3-methoxypyrrolidin-1-yl)-2-(methylamino)pyrimidin-4-yl)-1H-imidazole-2-carboxamide]

Reference: US8623857B2, “N-phenyl imidazole carboxamide inhibitors of 3-phosphoinositide-dependent protein kinase-1” (Merck Sharp & Dohme Corp., priority 2010, dated 2014)
